In patent publication US11274101B2, “Heterocyclic compound” (Takeda Pharmaceutical Company Limited, priority 2017, dated 2022):

Key:
[1] = tested on: intracerebral 2-AG and arachidonic acid; assay: Measurement of intracerebral 2-AG and arachidonic acid concentrations after oral administration; format: in vivo, mouse (C57BL/6J); details: for 2-AG concentration / arachidonic acid concentration: male C57BL/6J mice, 1 mg/kg by gavage, cerebrum isolated 1 hour after administration; for 2-AG concentration: control 13.5; for arachidonic acid concentration: control 203.1; for intracerebral 2-AG concentration compared to control / intracerebral arachidonic acid concentration compared to control / migration into brain: oral administration to C57BL/6J mice
Method: As the mouse, 8-week-old male C57BL/6J mice (CLEA Japan, Inc.) were used (6 mice/group). Administration solutions were prepared by suspending the test compounds (compound 1 (compound of Example 16), compound 2 (compound of Example 18) and compound 3 (compound of Example 46)) in 0.5% methylcellulose solution (Wako Pure Chemical Industries, Ltd.). The dose of the test compound was prepared to be 1 mg/kg body weight/10 mL. The test compounds were administered by gavage at 1 mg/kg body weight. The cerebrum was isolated after the administration of the test compound (isolation time after the administration of the test compound is shown in Table 3), and the cerebrum hemisphere was extracted. The obtained cerebrum hemisphere was frozen on dry ice, and the frozen tissue weight was measured.
The cerebral tissue was homogenized with 4-fold (v/w) of isopropanol (IPA), and double diluted with IPA. To the diluted sample (200 μL) was added internal standard solution (5 μL) ([5,6,8,9,11,12,14,15-D8]-(5Z,8Z,11Z,14Z)-5,8,11,14-eicosatetraenoic acid (AA-d8, 0.5 nmol/mL IPA) and [5,6,8,9,11,12,14,15-D8]-(5Z,8Z,11Z,14Z)-5,8,11,14-eicosatetraenoyl-2-glycerol ester (2-AG-d8, 0.5 nmol/mL IPA)), and the mixture was centrifuged at 15000 rpm for 5 min. The supernatant was injected to liquid chromatography mass spectrometer for quantitative analysis.
For liquid chromatography, Shimadzu LC20A system (Shimadzu Corporation) was used. The separation was performed by gradient elution method with mobile phase A (10 mmol/L HCOONH4/HCOOH (100:0.2, v/v)) and mobile phase B (ethanol/IPA (3:2, v/v)) using Shim-pack XR-ODS (2.2 μm, 2.0×30 mm, Shimadzu Corporation) at column temperature of 50° C., at flow rate of 0.5 mL/min. The gradient conditions are as follows: 0-1 min, 1% B; 1-1.2 min, 1-55% B; 1.2-2.7 min, 55-75% B; 2.7-3.5 min, 75-99% B; 3.5-6 min, 99% B; 6-8 min, 1% B.
For mass spectrometer, API5000 (AB SCIEX) was used. The eluate from the liquid chromatography was directly ionized by turbospray ionization method, where (5Z,8Z,11Z,14Z)5,8,11,14-eicosatetraenoic acid (AA) and AA-ds were measured by negative ionization mode, and (5Z,8Z,11Z,14Z)5,8,11,14-eicosatetraenoyl-2-glycerol ester (2-AG) and 2-AG-d8 were measured by positive ionization mode.
A solution for calibration curve was prepared to the concentration of 2, 5, 10, 20, 50, 100, 200, 500, 1000 nmol/mL of acetonitrile. These solutions (10 μL) was mixed with 200 μL of IPA and 5 μL of internal standard solution, and the mixture was centrifuged at 15000 rpm for 5 min, and the supernatant was injected to liquid chromatography mass spectrometer. Liner regression with 1/x^2 weighting was used for the calibration curve fitting, and the quantitativity was confirmed by accuracy of 100±20% and R^2>0.99.

[2] = biological target: T1, His-hMAGL (recombinant polyhistidine tagged human MAGL protein) (Homo sapiens, UniProt Q99685); assay: Measurement of MAGL inhibitory activity (arachidonic acid production from 2-arachidonylglycerol, RapidFire-mass spectrometry); format: biochemical; details: test compound 10 μM; MAGL inhibitory rate
T1 construct: made in house; host or cells: E. coli BL21(DE3)
T1 sequence (Q99685 1-303): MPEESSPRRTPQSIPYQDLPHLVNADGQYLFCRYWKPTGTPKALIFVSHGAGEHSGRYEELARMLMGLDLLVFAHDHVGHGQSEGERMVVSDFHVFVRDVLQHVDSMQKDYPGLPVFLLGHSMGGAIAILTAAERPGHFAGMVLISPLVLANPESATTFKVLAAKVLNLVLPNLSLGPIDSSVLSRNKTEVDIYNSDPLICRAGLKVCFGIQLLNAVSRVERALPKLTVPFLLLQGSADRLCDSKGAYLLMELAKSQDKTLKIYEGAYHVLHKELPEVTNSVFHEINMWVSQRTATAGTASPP
Method: The His-hMAGL obtained above was diluted with enzyme reaction buffer (10 mM Tris-HCl, pH 7.5, 1 mM EDTA, 0.025 (w/v) % Triton X-100, 0.01% Bovine serum albumin) to a concentration of 7.5 ng/mL. To each well of a 384 well assay plate (Greiner 781280) was added a solution (5 μL) of a test compound dissolved in dimethyl sulfoxide (DMSO), which was diluted with the above-mentioned enzyme reaction buffer, then His-hMAGL solution (5 μL) diluted to a concentration of 7.5 ng/mL was added, and the mixture was incubated at room temperature for 60 min. Thereafter, to each well was added 5 μL of 150 μM 2-arachidonylglycerol (Tocris Bioscience), and the mixture was incubated at room temperature for 10 min. Then, 10 μL of 2% formic acid (Wako Pure Chemical Industries, Ltd.) was added to stop the reaction. Furthermore, acetonitrile (50 μL) containing 3 μM arachidonic acid-d8 (Cayman Chemical Company) was added and the mixture was stirred.
The amount of arachidonic acid in the obtained enzyme reaction mixture was calculated by measuring by RapidFire-mass spectrometry and correcting by the amount of arachidonic acid-d8. High Throughput online solid phase extraction was performed using RapidFire 300™ system (Agilent Technologies, Inc.). Samples were loaded on SPE C4 cartridge (Agilent Technologies, Inc.) and desalted with 0.2 (v/v) % acetic acid (Wako Pure Chemical Industries, Ltd.) in ultrapure water/acetonitrile (70/30, v/v) at a flow rate of 1.5 mL/min, eluted at a flow rate of 0.5 mL/min with 0.2 (v/v) % acetic acid dissolved in acetonitrile/ultrapure water (90/10, v/v), and injected into the mass spectrometry part. The injection needle was washed with ultrapure water (500 millisecond) and acetonitrile (500 millisecond) to minimize carry-over. The suction time (injection loop 5 μL), load/cleansing time, elution time and re-equilibration time were adjusted to 300, 3000, 4250 and 1000 milliseconds, respectively, and the total cycle time was adjusted to about 10.0 seconds. The RapidFire300 system was controlled by RapidFire UI software version 3.6 (Agilent Technologies, Inc.).
The mass spectrometry of the resultant product was performed using API4000™ triple quadrupole mass spectrometer (AB SCIEX) equipped with an electrospray ion sauce (TurboIon Spray™) in a negative selected reaction monitoring (SRM) mode. The conditions of SRM are shown below. The parameters of the instrument were optimized as follows: capillary temperature 600° C., ion spray voltage −4.5 kV, collision gas 8, curtain gas 15 psi, ion source gas 1 60 psi, ion source gas 2 60 psi. The mass spectrometer was controlled by Analyst™ software version 1.5.1 (AB SCIEX). The peak area integration was analyzed using RapidFire integrator software version 3.6 (Agilent Technologies, Inc.).
MAGL inhibitory rate (%) was calculated according to the following calculation formula. (1-(arachidonic acid production amount of test compound addition group−arachidonic acid production amount of enzyme-free group)+(arachidonic acid production amount of test compound-free group−arachidonic acid production amount of enzyme-free group))×100

Row | Structure (SMILES) | migration into brain [1] | inhibition at 10 µM [2] | 2-AG concentration [1] | arachidonic acid concentration [1] | intracerebral 2-AG concentration compared to control [1] | intracerebral arachidonic acid concentration compared to control [1]
1 | O=C1NC2(CO1)CN(C(=O)O[C@H]1C[C@@H](COc3ccc(F)c(F)c3F)C1)C2 [Example 16, cis-3-((2,3,4-trifluorophenoxy)methyl)cyclobutyl 6-oxo-7-oxa-2,5-diazaspiro[3.4]octane-2-carboxylate] | migrated into brain | 100% | 82.3 nmol/g | 119.8 nmol/g | increased | decreased
2 | O=C1NC2(CO1)CN(C(=O)O[C@H]1C[C@@H](COc3ccc(F)cc3Cl)C1)C2 [Example 14, cis-3-((2-chloro-4-fluorophenoxy)methyl)cyclobutyl 6-oxo-7-oxa-2,5-diazaspiro[3.4]octane-2-carboxylate] | – | 98% | – | – | – | –
3 | Cc1ccc(CO[C@H]2C[C@@H](OC(=O)N3CC4(COC(=O)N4)C3)C2)cc1Cl [Example 3, cis-3-((3-chloro-4-methylbenzyl)oxy)cyclobutyl 6-oxo-7-oxa-2,5-diazaspiro[3.4]octane-2-carboxylate] | – | 101% | – | – | – | –
4 | O=C1NC2(CO1)CN(C(=O)O[C@H]1CC[C@H](Oc3ccc(C(F)(F)F)cc3F)CC1)C2 [Example 37, trans-4-(2-fluoro-4-(trifluoromethyl)phenoxy)cyclohexyl 6-oxo-7-oxa-2,5-diazaspiro[3.4]octane-2-carboxylate] | – | 101% | – | – | – | –
5 | O=C1NC2(CO1)CN(C(=O)O[C@H]1C[C@@H](COCc3ccc(F)c(F)c3F)C1)C2 [Example 31, cis-3-(((2,3,4-trifluorobenzyl)oxy)methyl)cyclobutyl 6-oxo-7-oxa-2,5-diazaspiro[3.4]octane-2-carboxylate] | – | 100% | – | – | – | –
6 | O=C1NC2(CO1)CN(C(=O)O[C@H]1C[C@@H](COCc3ccc(F)cc3Cl)C1)C2 [Example 30, cis-3-(((2-chloro-4-fluorobenzyl)oxy)methyl)cyclobutyl 6-oxo-7-oxa-2,5-diazaspiro[3.4]octane-2-carboxylate] | – | 100% | – | – | – | –
7 | Cc1cc(COC[C@H]2C[C@@H](OC(=O)N3CC4(COC(=O)N4)C3)C2)ccc1Cl [Example 29, cis-3-(((4-chloro-3-methylbenzyl)oxy)methyl)cyclobutyl 6-oxo-7-oxa-2,5-diazaspiro [3.4]octane-2-carboxylate] | – | 100% | – | – | – | –

Continued, in another order:

Row | migration into brain [1] | inhibition at 10 µM [2] | Structure (SMILES) | 2-AG concentration [1] | arachidonic acid concentration [1] | intracerebral 2-AG concentration compared to control [1] | intracerebral arachidonic acid concentration compared to control [1]
8 | migrated into brain | 102% | O=C1NC2(CO1)CN(C(=O)O[C@H]1C[C@@H](Oc3c(F)cc(F)cc3F)C1)C2 [Example 46, cis-3-(2,4,6-trifluorophenoxy)cyclobutyl 6-oxo-7-oxa-2,5-diazaspiro[3.4]octane-2-carboxylate] | 79.0 nmol/g | 138.0 nmol/g | increased | decreased
9 | migrated into brain | 102% | O=C1NC2(CO1)CN(C(=O)O[C@H]1C[C@@H](COc3c(F)cc(F)cc3F)C1)C2 [Example 18, cis-3-((2,4,6-trifluorophenoxy)methyl)cyclobutyl 6-oxo-7-oxa-2,5-diazaspiro[3.4]octane-2-carboxylate] | 128.7 nmol/g | 84.3 nmol/g | increased | decreased
10 | – | 101% | O=C1NC2(CO1)CN(C(=O)O[C@H]1C[C@@H](COCc3c(F)cc(F)cc3F)C1)C2 [Example 33, cis-3-(((2,4,6-trifluorobenzyl)oxy)methyl)cyclobutyl 6-oxo-7-oxa-2,5-diazaspiro[3.4]octane-2-carboxylate] | – | – | – | –
11 | – | 100% | O=C1NC2(CO1)CN(C(=O)O[C@H]1C[C@@H](OCc3c(F)cc(F)cc3F)C1)C2 [Example 8, cis-3-((2,4,6-trifluorobenzyl)oxy)cyclobutyl 6-oxo-7-oxa-2,5-diazaspiro[3.4]octane-2-carboxylate] | – | – | – | –
